System: latently EBV-infected Raji-reporter cells
Assay: Induction of lytic EBV-infection after proviral treatment (expression of ZEBRA)
Assay type: cell-based
Settings: EBV-positive Raji-reporter cells, 24 hours induction, related to untreated control; PMA at 20 ng/ml; Figure 1
Procedure: The relative induction of the EBV lytic cycle in latently EBV-infected Raji-reporter cells was tested using the human peptide mixture comprising the two complement factor D derived peptide sequences SEQ ID No. 3 and SEQ ID No. 4 (CFD+ peptide mixture) in comparison to the known exogenous proviral substance phorbol-12-myristate13-acetate (PMA), each related to the untreated control. The EBV-positive Raji-reporter cells were treated with the human peptide mixture or with the 20 ng/ml PMA. In a control, cells were not treated with a proviral substance. After 24 hours induction the lytic EBV-infection was compared between treated and non-treated cells via expression of the lytic EBV-immediate early protein ZEBRA. […] Without being bound to the theory, it can be assumed that the pure peptides will result in an even better induction.

**Q.** For `CCCCCCCCCCCCCC(=O)O[C@@H]1[C@@H](C)[C@@]2(O)[C@@H](C=C(CO)C[C@]3(O)C(=O)C(C)=C[C@@H]23)[C@@H]2C(C)(C)[C@]12OC(C)=O` [PMA, phorbol-12-myristate13-acetate], which “induction of lytic EBV-infection via expression of the lytic EBV-immediate early protein ZEBRA” value is on record?
**A.** Its value is “resulted in the induction of lytic EBV-infection”.
